Measurements from patent US8124582B2, “Treatment of diabetes” (FibroGen, Inc., priority 2002, dated 2012).

Assays:
[1] = Blood glucose levels after 14 days oral dosing; format: in vivo, male Sprague Dawley rats; conditions: rats, 20, 60, 100, or 200 mg/kg oral gavage once daily for 14 days, overnight fast, day 15; FIG. 4
Protocol: The effect of compound administration on blood glucose levels was examined as follows. Fifty male Sprague Dawley rats (6-7 weeks old) obtained from Simonsen, Inc. were dosed with 0.5% CMC (Sigma-Aldrich) or compound B at 20, 60, 100, or 200 mg/kg body weight by oral gavage once daily for 14 consecutive days. Animals were monitored for changes in body weight and signs of overt toxicity and mortality. […] One sample of approximately 1 ml was collected into tubes containing EDTA for hematological analysis, and a second sample of approximately 1 ml was collected into a tube with no anticoagulant for serum chemistry analysis. Blood sample analyses were performed by IDEXX (West Sacramento, Calif.).

GluT-1 = test: In vivo GluT-1 gene expression in kidney, dose response (microarray); design: species or system Swiss Webster male mice; conditions: mice, low dose (30 mg/ml) or high dose (100 mg/ml), oral gavage once per day for 4 days; FIG. 3A
Protocol: To investigate the dose response of compounds of the present invention, twelve Swiss Webster male mice (30-32 g) (obtained from Simonsen, Inc., Gilroy Calif.) were treated by oral gavage once per day for 4 days with a 4 ml/kg volume of either 0.5% carboxymethyl cellulose (CMC; Sigma-Aldrich, St. […] Four hours after the final dose, animals were anesthetized, sacrificed, and approximately 150 mg of liver and each kidney were isolated and stored in RNALATER solution (Ambion) at −20° C.
RNA from tissues obtained from the experiments described above was isolated using the following protocol. A 50 mg section of each organ was diced, 875 μl of RLT buffer (RNEASY kit; Qiagen Inc., Valencia Calif.) was added, and the pieces were homogenized for about 20 seconds using a rotor-stator POLYTRON homogenizer (Kinematica, Inc., Cincinnati Ohio). […] The RNA was eluted into 80 μL of water and quantitated with RIBOGREEN reagent (Molecular Probes, Eugene Oreg.). […] The absorbance at 260 and 280 nm was measured to determine RNA purity and concentration.
Alternatively, tissue samples were diced and homogenized in TRIZOL reagent (Invitrogen Life Technologies, Carlsbad Calif.) using a rotor-stator POLYTRON homogenizer (Kinematica). […] The absorbance at 260 and 280 nm was measured to determine RNA purity and concentration. […]

[2] = Body weight gain, organ weight and visceral fat after 14 days oral dosing; format: in vivo, male Sprague Dawley rats
Protocol: The effect of compounds of the present invention on weight loss and fat stores in animals was examined as follows. Fifty male Sprague Dawley rats (6-7 weeks old) obtained from Simonsen, Inc. were dosed with 0.5% CMC (Sigma-Aldrich) or compound B at 20, 60, 100, or 200 mg/kg body weight by oral gavage once daily for 14 consecutive days. Animals were monitored for changes in body weight and signs of overt toxicity and mortality. On day 15, following an overnight fast with water available ad libitum, animals were anesthetized with isoflurane. One whole blood sample of approximately 1 ml was collected into tubes containing EDTA for hematological analysis, and a second sample of approximately 1 ml was collected into a tube with no anticoagulant for serum chemistry analysis. Blood sample analyses were performed by IDEXX (West Sacramento, Calif.). Following blood collection, the diaphragm was incised and the animals were sacrificed. Macroscopic observations were recorded for each animal and the liver, kidneys, heart, spleen, lungs, stomach, small intestines, and large intestines were collected for histological assessment.

## O=C(O)CNC(=O)c1nc(Cl)c2ccccc2c1O [compound B, [(1-Chloro4-hydroxy-isoquinoline-3-carbonyl)-amino]-acetic acid]
[1]
  blood glucose levels: dose-dependent decrease
GluT-1
  expression of the gene encoding GluT-1 in kidney: dose-dependent alteration
[2]; rats, 100 mg/kg, p=0.036, one-way ANOVA/Tukey's test
  relative heart weight, expressed as a fraction of the total body weight, compared to control: significantly increased
[2]; rats, 20, 60, 100, or 200 mg/kg oral gavage once daily for 14 days, FIG. 7A
  weight gain: dose-dependent retardation
[2]; rats, 20 to 200 mg/kg oral gavage 14 days, FIG. 8
  visceral fat: dose-dependent reduction
[2]; rats, higher doses of compound, FIG. 8 bottom panel
  visceral fat pads at higher doses: complete absence of fat pads
[2]; rats, oral gavage 14 days, FIG. 7B
  absolute heart weight compared to control: no statistically significant difference
